Experimental data taken from PubChem BioAssay AID1845197 (Molecular Pharmacology Branch, DTP, NCI, 2023).
pIC50: −log10 of the molar value.

System: 349418-098-R tumor spheroid viability
Test: Anticancer human tumor 349418-098-R patient-derived lung adenocarcinoma cell line growth inhibition
Conditions: spheroids with HUVEC and MSC; for pIC50: curve of first compound; for viability, T/C: stronger effect = lower value
In short: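 Complex spheroids of malignant cells with endothelial cells and mesenchymal stem cells; agents alone or combined, from near clinical Cmax (or 10 microM if unknown) down in half-log steps, 0.25% DMSO final.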

[1] = second compound 1 µM, first compound 0.0316 µM
[2] = second compound 1 µM, first compound 0.1 µM
[3] = second compound 1 µM, first compound 0.316 µM
[4] = second compound 1 µM, first compound 1 µM
[5] = second compound 1 µM, first compound 3.16 µM
[6] = second compound 1 µM, first compound 10 µM
[7] = second compound 3.16 µM, first compound 0.0316 µM
[8] = second compound 3.16 µM, first compound 0.1 µM
[9] = second compound 3.16 µM, first compound 0.316 µM
[10] = second compound 3.16 µM, first compound 1 µM
[11] = second compound 3.16 µM, first compound 3.16 µM
[12] = second compound 3.16 µM, first compound 10 µM
[13] = second compound 10 µM, first compound 0.0316 µM
[14] = second compound 10 µM, first compound 0.1 µM
[15] = second compound 10 µM, first compound 0.316 µM
[16] = second compound 10 µM, first compound 1 µM
[17] = second compound 10 µM, first compound 3.16 µM
[18] = second compound 10 µM, first compound 10 µM
[19] = second compound 31.6 µM, first compound 0.0316 µM
[20] = second compound 31.6 µM, first compound 0.1 µM
[21] = second compound 31.6 µM, first compound 0.316 µM
[22] = second compound 31.6 µM, first compound 1 µM
[23] = second compound 31.6 µM, first compound 3.16 µM
[24] = second compound 31.6 µM, first compound 10 µM
[25] = second compound 100 µM, first compound 0.0316 µM
[26] = second compound 100 µM, first compound 0.1 µM
[27] = second compound 100 µM, first compound 0.316 µM
[28] = second compound 100 µM, first compound 1 µM
[29] = second compound 100 µM, first compound 3.16 µM
[30] = second compound 100 µM, first compound 10 µM
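Further: spheroids exposed to compound for 7 days before measurement.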
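Wherever viability, T/C is given: percent of vehicle control viability with 100% = DMSO-treated spheroids.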

**Q.** With `Cc1sc2c(c1C)C(c1ccc(Cl)cc1)=NC(CC(=O)Nc1ccc(O)cc1)c1nnc(C)n1-2` (stereo not given) + CC[C@@]1(O)C(=O)OCc2c1cc1n(c2=O)Cc2cc3c(CN(C)C)c(O)ccc3nc2-1 as the molecule, how does the pIC50 (second compound 0.003 µM) read?
**A.** 7.15

**Q.** What about the pIC50 (second compound 0.00949 µM) of the same molecule?
**A.** 7.16

**Q.** What about the pIC50 (second compound 0.03 µM) of the same molecule?
**A.** 7.38

**Q.** What about the pIC50 (second compound 0.0949 µM) of the same molecule?
**A.** > 8.02

**Q.** What about the pIC50 (second compound 0.3 µM) of the same molecule?
**A.** > 8.02

**Q.** What about the viability, T/C (second compound 0.003 µM, first compound 0.00949 µM) of the same molecule?
**A.** 96.2%

**Q.** And the viability, T/C (second compound 0.003 µM, first compound 0.03 µM)?
**A.** 83.1%

**Q.** And the viability, T/C (second compound 0.003 µM, first compound 0.0949 µM)?
**A.** 39.1%

**Q.** What about the viability, T/C (second compound 0.003 µM, first compound 0.3 µM) of the same molecule?
**A.** 7.85%

**Q.** What about the viability, T/C (second compound 0.003 µM, first compound 0.949 µM) of the same molecule?
**A.** 0.87%

**Q.** And the viability, T/C (second compound 0.003 µM, first compound 3 µM)?
**A.** 0.47%

**Q.** What about the viability, T/C (second compound 0.00949 µM, first compound 0.00949 µM) of the same molecule?
**A.** 92.4%

**Q.** And the viability, T/C (second compound 0.00949 µM, first compound 0.03 µM)?
**A.** 78.1%

**Q.** And the viability, T/C (second compound 0.00949 µM, first compound 0.0949 µM)?
**A.** 40%

**Q.** What about the viability, T/C (second compound 0.00949 µM, first compound 0.3 µM) of the same molecule?
**A.** 6.43%

**Q.** And the viability, T/C (second compound 0.00949 µM, first compound 0.949 µM)?
**A.** 0.61%

**Q.** And the viability, T/C (second compound 0.00949 µM, first compound 3 µM)?
**A.** 0.48%

**Q.** And the viability, T/C (second compound 0.03 µM, first compound 0.00949 µM)?
**A.** 77.9%

**Q.** And the viability, T/C (second compound 0.03 µM, first compound 0.03 µM)?
**A.** 61.7%

**Q.** What about the viability, T/C (second compound 0.03 µM, first compound 0.0949 µM) of the same molecule?
**A.** 20.9%

**Q.** What about the viability, T/C (second compound 0.03 µM, first compound 0.3 µM) of the same molecule?
**A.** 5.67%

**Q.** And the viability, T/C (second compound 0.03 µM, first compound 0.949 µM)?
**A.** 0.64%

**Q.** What about the viability, T/C (second compound 0.03 µM, first compound 3 µM) of the same molecule?
**A.** 0.38%

**Q.** And the viability, T/C (second compound 0.0949 µM, first compound 0.00949 µM)?
**A.** 12.6%

**Q.** What about the viability, T/C (second compound 0.0949 µM, first compound 0.03 µM) of the same molecule?
**A.** 16.2%

**Q.** What about the viability, T/C (second compound 0.0949 µM, first compound 0.0949 µM) of the same molecule?
**A.** 4.16%

**Q.** What about the viability, T/C (second compound 0.0949 µM, first compound 0.3 µM) of the same molecule?
**A.** 1.07%

**Q.** And the viability, T/C (second compound 0.0949 µM, first compound 0.949 µM)?
**A.** 0.3%

**Q.** What about the viability, T/C (second compound 0.0949 µM, first compound 3 µM) of the same molecule?
**A.** 0.35%

**Q.** And the viability, T/C (second compound 0.3 µM, first compound 0.00949 µM)?
**A.** 2.78%

**Q.** What about the viability, T/C (second compound 0.3 µM, first compound 0.03 µM) of the same molecule?
**A.** 2.56%

**Q.** What about the viability, T/C (second compound 0.3 µM, first compound 0.0949 µM) of the same molecule?
**A.** 1.45%

**Q.** And the viability, T/C (second compound 0.3 µM, first compound 0.3 µM)?
**A.** 0.63%

**Q.** And the viability, T/C (second compound 0.3 µM, first compound 0.949 µM)?
**A.** 0.55%

**Q.** What about the viability, T/C (second compound 0.3 µM, first compound 3 µM) of the same molecule?
**A.** 0.39%

**Q.** `COc1cc(C)[nH]c(=O)c1CN1CCc2c(Cl)cc(C(OC)C3COC3)c(Cl)c2C1=O` (stereo not given) + Cn1nnc2c(C(N)=O)ncn2c1=O was tested. Which pIC50 (second compound 1 µM) did it give?
**A.** < 5.00

**Q.** And the pIC50 (second compound 3.16 µM)?
**A.** < 5.00

**Q.** And the pIC50 (second compound 10 µM)?
**A.** < 5.00

**Q.** And the pIC50 (second compound 31.6 µM)?
**A.** < 5.00

**Q.** What about the pIC50 (second compound 100 µM) of the same molecule?
**A.** < 5.00

**Q.** What about the viability, T/C [1] of the same molecule?
**A.** 102%

**Q.** And the viability, T/C [2]?
**A.** 99.6%

**Q.** What about the viability, T/C [3] of the same molecule?
**A.** 92.1%

**Q.** And the viability, T/C [4]?
**A.** 90.6%

**Q.** And the viability, T/C [5]?
**A.** 83.7%

**Q.** And the viability, T/C [6]?
**A.** 79.4%

**Q.** What about the viability, T/C [7] of the same molecule?
**A.** 103%

**Q.** What about the viability, T/C [8] of the same molecule?
**A.** 98.5%

**Q.** And the viability, T/C [9]?
**A.** 95.7%

**Q.** And the viability, T/C [10]?
**A.** 84.2%

**Q.** What about the viability, T/C [11] of the same molecule?
**A.** 84%

**Q.** What about the viability, T/C [12] of the same molecule?
**A.** 83.6%

**Q.** What about the viability, T/C [13] of the same molecule?
**A.** 98.7%

**Q.** What about the viability, T/C [14] of the same molecule?
**A.** 96.7%

**Q.** And the viability, T/C [15]?
**A.** 92.3%

**Q.** What about the viability, T/C [16] of the same molecule?
**A.** 95.1%

**Q.** And the viability, T/C [17]?
**A.** 85%

**Q.** What about the viability, T/C [18] of the same molecule?
**A.** 81.9%

**Q.** And the viability, T/C [19]?
**A.** 104%

**Q.** What about the viability, T/C [20] of the same molecule?
**A.** 98.5%

**Q.** And the viability, T/C [21]?
**A.** 93.4%

**Q.** What about the viability, T/C [22] of the same molecule?
**A.** 93.3%

**Q.** And the viability, T/C [23]?
**A.** 84.8%

**Q.** And the viability, T/C [24]?
**A.** 78.4%

**Q.** And the viability, T/C [25]?
**A.** 99%

**Q.** What about the viability, T/C [26] of the same molecule?
**A.** 98.7%

**Q.** And the viability, T/C [27]?
**A.** 96.3%

**Q.** And the viability, T/C [28]?
**A.** 87.4%

**Q.** And the viability, T/C [29]?
**A.** 87%

**Q.** What about the viability, T/C [30] of the same molecule?
**A.** 81.8%

**Q.** What does the source list for `[2H]c1nc(C)nc([2H])c1-c1cc(NC[C@@H](C)c2cccc3c(C(=O)NC)ccnc23)ncn1` + Cn1nnc2c(C(N)=O)ncn2c1=O?
**A.** pIC50 (second compound 1 µM): < 5.00; pIC50 (second compound 3.16 µM): < 5.00; pIC50 (second compound 10 µM): < 5.00; pIC50 (second compound 31.6 µM): < 5.00; pIC50 (second compound 100 µM): < 5.00; viability, T/C [1]: 98.9%; viability, T/C [2]: 103%; viability, T/C [3]: 98.7%; viability, T/C [4]: 97.9%; viability, T/C [5]: 102%; viability, T/C [6]: 97.3%; viability, T/C [7]: 109%; viability, T/C [8]: 105%; viability, T/C [9]: 104%; viability, T/C [10]: 98.3%; viability, T/C [11]: 104%; viability, T/C [12]: 103%; viability, T/C [13]: 104%; viability, T/C [14]: 96.6%; viability, T/C [15]: 102%; viability, T/C [16]: 106%; viability, T/C [17]: 101%; viability, T/C [18]: 104%; viability, T/C [19]: 97.8%; viability, T/C [20]: 110%; viability, T/C [21]: 101%; viability, T/C [22]: 104%; viability, T/C [23]: 103%; viability, T/C [24]: 104%; viability, T/C [25]: 106%; viability, T/C [26]: 109%; viability, T/C [27]: 106%; viability, T/C [28]: 106%; viability, T/C [29]: 108%; viability, T/C [30]: 110%

**Q.** Which results are given for `COc1ccc([C@@H](O)c2cc(-c3ncnc4cc(N5CCOCC5)ccc34)c(F)cc2Cl)nn1` + Cn1nnc2c(C(N)=O)ncn2c1=O?
**A.** pIC50 (second compound 1 µM): 5.25; pIC50 (second compound 3.16 µM): 5.29; pIC50 (second compound 10 µM): 5.29; pIC50 (second compound 31.6 µM): 5.37; pIC50 (second compound 100 µM): 5.44; viability, T/C [1]: 97.6%; viability, T/C [2]: 95.6%; viability, T/C [3]: 101%; viability, T/C [4]: 97.7%; viability, T/C [5]: 73.3%; viability, T/C [6]: 26.4%; viability, T/C [7]: 103%; viability, T/C [8]: 99%; viability, T/C [9]: 106%; viability, T/C [10]: 102%; viability, T/C [11]: 70.1%; viability, T/C [12]: 21.3%; viability, T/C [13]: 99.8%; viability, T/C [14]: 97.5%; viability, T/C [15]: 103%; viability, T/C [16]: 104%; viability, T/C [17]: 66%; viability, T/C [18]: 28.5%; viability, T/C [19]: 99.1%; viability, T/C [20]: 104%; viability, T/C [21]: 101%; viability, T/C [22]: 106%; viability, T/C [23]: 59.8%; viability, T/C [24]: 22.2%; viability, T/C [25]: 102%; viability, T/C [26]: 112%; viability, T/C [27]: 107%; viability, T/C [28]: 102%; viability, T/C [29]: 53.4%; viability, T/C [30]: 24.1%
